Results reported in patent EP1306084A1, “Compositions for the control of parasitic infestations in fish” (Alpharma AS, priority 1998, dated 1999).
Like-named read-outs stand apart in the source and are kept apart here.

Assays:
sea lice [1] = assay: Oral hexaflumuron treatment of naturally sea lice infected salmon in sea cages (Example 1); type: in vivo, Atlantic salmon (Salmo salar); details: 9 mg per kg each day for 10 days
Experimental: The treatment dosage was 9 mg hexaflumuron per kg fish per day for 10 days. This is indicated by "Groups/Timepoints" in the figure; • Figure 2 relates to the trial in Example 2 that was carried out on Atlantic salmon (Salmo salar). […] The treatment dosage varied between 3 - 9 mg hexaflumuron and 9- 12 mg fluazuron per kg fish per day for 7 days. This is indicated by "Groups/Timepoints" in the diagram. […] The treated groups are compared to an untreated control group. The treatment dosage was 4 mg hexaflumuron per kg fish per day for 5 days. This is indicated by "Groups/Timepoints" in the figure. Cage 2 = controls, Cage 4-6 = treated groups, 16.6.97 = time point for sea transfer and 5.8.97= controls treated by bathing with deltamethrin; • Figure 4 relates to the trial described in Example 5, which was carried out on sea trout (Salmo trutta). […] The treated groups are compared with an untreated control group. The dosage for oral treatment was 4 mg hexaflumuron per kilo fish per day for 5 days, and 5 ppm hexaflumuron as a 30 minute bath treatment. This is indicated by "Groups/Timepoints" in the figure. Cage 1.4 = Controls, cage 1.3 = Oral treatment, cage 1.2 = Bath treatment. […] The treated groups are compared with an untreated control group, and one group that has been treated orally with teflubenzuron (10 mg/kg of teflubenzuron per kg fish per day for 7 days). […]

[2] = Chemical analysis of muscle with skin after injection (Example 7); type: in vivo, salmon (Salmo salar); details: fish, 50 mg/kg; for concentration at 8280 h: T11, 345 days after injection, read-out: muscle/skin concentration of hexaflumuron
Experimental: Tissue samples (muscle with skin) for chemical analysis were collected from three fish at each sample point in time throughout the entire trial period in order to monitor the concentrations of hexaflumuron. At sea water transfer, the muscle/skin concentrations were between 2 and 3 µg hexaflumuron per g of tissue. […] At T8, i.e. 238 days after vaccination, the concentration of hexaflumuron varied between 0.49 and 0.53 µg per g of tissue. At T11, i.e. 345 days after injection (322 days after sea water transfer) the muscle/skin concentration of hexaflumuron in the two groups was 0.13 and 0.11 µg/g tissue, respectively. At the same point in time, different stages of sea lice had become established on these fish.

sea lice [3] = assay: Injection of 9 active substances, protective effect against sea lice (Example 8); type: in vivo, salmon smolt; details: for lice on average: T3, 70 days after injection, about 50 mg/kg, control group 5.6
Experimental: The treatment dosage was 9 mg hexaflumuron per kg fish per day for 10 days. This is indicated by "Groups/Timepoints" in the figure; • Figure 2 relates to the trial in Example 2 that was carried out on Atlantic salmon (Salmo salar). […] The treatment dosage varied between 3 - 9 mg hexaflumuron and 9- 12 mg fluazuron per kg fish per day for 7 days. This is indicated by "Groups/Timepoints" in the diagram. […] The treated groups are compared to an untreated control group. The treatment dosage was 4 mg hexaflumuron per kg fish per day for 5 days. This is indicated by "Groups/Timepoints" in the figure. Cage 2 = controls, Cage 4-6 = treated groups, 16.6.97 = time point for sea transfer and 5.8.97= controls treated by bathing with deltamethrin; • Figure 4 relates to the trial described in Example 5, which was carried out on sea trout (Salmo trutta). […] The treated groups are compared with an untreated control group. The dosage for oral treatment was 4 mg hexaflumuron per kilo fish per day for 5 days, and 5 ppm hexaflumuron as a 30 minute bath treatment. This is indicated by "Groups/Timepoints" in the figure. Cage 1.4 = Controls, cage 1.3 = Oral treatment, cage 1.2 = Bath treatment. […] The treated groups are compared with an untreated control group, and one group that has been treated orally with teflubenzuron (10 mg/kg of teflubenzuron per kg fish per day for 7 days). The dosage for oral treatment was 5.6 mg hexaflumuron per kg fish per day for 7 days, and 5 ppm hexaflumuron as a 30 minute bath treatment. […] End of treatment: 22.10.97, Sea transfer: 23.10.97. T1 = 3 weeks post end of treatment, T2 = 5 weeks post end of treatment, T3 = 9 weeks post end of treatment, T4 = 12 weeks post end of treatment; • Figure 6 relates to the trial in Example 6 at time points 4-6, with the same trial parameters as for Figure 5. T5 = 15 weeks post end of treatment, T6 = 17 weeks post end of treatment. Cage 3 and 4 were treated by bath with deltamethrin after sea lice counting at T4 (12.01.98); • Figure 7 relates to the trial described in Example 7 where salmon were injected on 17.12.97 with two formulations (groups L and R, respectively) of hexaflumuron and a vaccine formulation without hexaflumuron (control). […] The vaccinated fish was transferred to sea water on 09.01.98; • Figure 8 summarises the trial of Example 8 where salmon smolts were injected with 9 different active substances on 08.07.98. Only results for Moxidectin (Mox.), Lufenuron (Luf.) and hexaflumuron in Apoject 1-Fural (Hex.Apo) and in animal oil (Hex.oil) are shown, and • Figure 9 summarises the trial described in Example 10 where salmon were injected on 03.12.97 with 3 different formulations of hexaflumuron (Hexa 1, Hexa 2 and Hexa 3). The fish were transferred to sea water at T0.
In this trial 9 different active substances were tested for protective effect against sea lice. 1,200 salmon smolt were, prior the start of the trial, vaccinated with a commercial vaccine, ALPHA JECT 5100.
One week after sea water transfer the salmon was divided into 12 groups and injected with different formulations of the 9 different active substances. In parallel with the 12 groups, a 13th group comprising 50 fish of the same origin and size was injected with a saline (PBS) solution without active substance. This group served as negative control/reference group in respect of sea lice infestations. The groups were marked by fin cutting and distributed randomly into 3 cages.
The active substances that were used as injection were hexaflumuron, buprofezin, diflubenzuron, fluazuron, lufenuron, ivermectin, doramectin, moxidectin and milbemycin oxime, respectively. All the fish were injected with 0.2 ml of the various injection formulations. Hexaflumuron, buprofezin, fluazuron, lufenuron and diflubenzuron were administered at a dosage of about 50 mg/kg whereas ivermectin, doramectin and moxidectin were administered at a dosage of 0.2 mg/kg (recommended dosage for mammals). […]

sea lice [4] = assay: Oral treatment in freshwater before sea transfer, sea lice counts after natural infection (Example 4); type: in vivo, salmon (Salmo salar)
Experimental: The treatment dosage was 9 mg hexaflumuron per kg fish per day for 10 days. This is indicated by "Groups/Timepoints" in the figure; • Figure 2 relates to the trial in Example 2 that was carried out on Atlantic salmon (Salmo salar). […] The treatment dosage varied between 3 - 9 mg hexaflumuron and 9- 12 mg fluazuron per kg fish per day for 7 days. This is indicated by "Groups/Timepoints" in the diagram. […] The treated groups are compared to an untreated control group. The treatment dosage was 4 mg hexaflumuron per kg fish per day for 5 days. This is indicated by "Groups/Timepoints" in the figure. Cage 2 = controls, Cage 4-6 = treated groups, 16.6.97 = time point for sea transfer and 5.8.97= controls treated by bathing with deltamethrin; • Figure 4 relates to the trial described in Example 5, which was carried out on sea trout (Salmo trutta). […] The treated groups are compared with an untreated control group. The dosage for oral treatment was 4 mg hexaflumuron per kilo fish per day for 5 days, and 5 ppm hexaflumuron as a 30 minute bath treatment. This is indicated by "Groups/Timepoints" in the figure. Cage 1.4 = Controls, cage 1.3 = Oral treatment, cage 1.2 = Bath treatment. […] The treated groups are compared with an untreated control group, and one group that has been treated orally with teflubenzuron (10 mg/kg of teflubenzuron per kg fish per day for 7 days). The dosage for oral treatment was 5.6 mg hexaflumuron per kg fish per day for 7 days, and 5 ppm hexaflumuron as a 30 minute bath treatment. […] End of treatment: 22.10.97, Sea transfer: 23.10.97. […]
About 2,500 salmon (Salmo salar) of average weight 42 grams were treated orally with a daily dosage of 4 mg hexaflumuron per kilo fish for 5 days. […] The number of lice on 10 fish from each cage were counted every third week to check if there was any difference in the number of lice in the cages. […]

## O=C(NC(=O)c1c(F)cccc1F)Nc1cc(Cl)c(OC(F)(F)C(F)F)c(Cl)c1 [hexaflumuron]
Sea lice [1]
  reduction of sensitive chalimus and pre-adult stages: about 95%
Sea lice [1]; medicated pellets, 7.6 - 9.4°C
  reduced the number of lice as compared to the control group: more than 90%
[2]; T8, 238 days after vaccination, read-out: concentration of hexaflumuron in muscle/skin
  concentration at 5712 h: 490 to 530 ng/g
[2]; first-named group
  concentration at 8280 h: 130 ng/g
[2]; second-named group
  concentration at 8280 h: 110 ng/g
[2]; at sea water transfer (23 days after injection of about 50 mg/kg), read-out: muscle/skin concentrations
  concentration at 552 h: 2000 to 3000 ng/g
Sea lice [3]; T2, 40 days after injection, hexaflumuron, lufenuron about 50 mg/kg, moxidectin 0.2 mg/kg
  protection against sea lice: showed protection
Sea lice [3]; formulated in Apoject 1-Fural
  lice on average: 0
Sea lice [3]; formulated in animal oil
  lice on average: 0.8
Sea lice [3]; T3, hexaflumuron in an aqueous suspension (PBS)
  protection against sea lice: no protection
Sea lice [3]; T8 (218 days after injection), hexaflumuron in Apoject 1-Fural, animal oil
  number of sea lice versus control group: significantly lower
Sea lice [3]; hexaflumuron formulated in Apoject 1-Fural or in animal oil
  significant protection against sea lice until and including T10, time after injection: 9 months
Sea lice [3]; two groups of fish injected with hexaflumuron
  prophylactic effect against sea lice: ≤ 10 months
Sea lice [4]; oral 4 mg per kilo fish daily for 5 days in freshwater
  protection from sea lice infestation after transfer to sea: 6-9 weeks
Sea lice [4]; oral 4 mg per kilo fish daily for 5 days, 3 and 6 weeks after sea transfer
  number of lice larger than Chalimus II versus control: significantly lower
